Measurements as given in patent EP0486749A1, “Triarylmethane compounds and pressure sensitive recording material” (HODOGAYA CHEMICAL CO., LTD., priority 1991, dated 1992).

Tests used:
[1] = Solubility of the color former in oil (KMC-113); format: physicochemical; conditions: in KMC-113 at 50°C
Text: To examine the solubility of a color former in oil, the solubility of benzoylleucomethylene blue in KMC-113 (product of Kureha Chemical Industries Co., Ltd.) as a typical solvent commonly employed, was investigated.
To examine the solubility in oil of the triarylmethane compounds of the present invention, the solubility in KMC-113 (product of Kureha Chemical Industries Co., Ltd.) as a typical solvent was examined.

[2] = Color formation on silica gel (TLC) and light resistance of the formed color; conditions: for light resistance: color formed on silica gel TLC
Description: The color in the Table is the color formed on silica gel.
To a dilute hydrochloric acid aqueous solution prepared by diluting 25 parts of 35% hydrochloric acid with 130 parts of water, 30 parts of 4,4'-bisdimethylaminobenzhydrol and 22 parts of methyl 3-dimethylaminobenzoate were dissolved and reacted at a temperature of from 50 to 60°C for 5 hours. Then, 10 parts of active carbon was added thereto, and the mixture was thoroughly mixed. After removing active carbon by filtration, 150 parts of 10% sodium hydroxide and 100 parts of toluene were added to the filtrate and thoroughly mixed. The toluene layer was separated, then washed with 100 parts of water and separated. Then, this toluene layer was thoroughly dried over anhydrous sodium salfate. Then, this toluene layer was concentrated, and 100 parts of methanol was added to the residue thereby obtained. Precipitated crystals were collected by filtration and recrystallized from a solvent mixture comprising 50 parts of methanol and 50 parts of acetone to obtain 35 parts of bis((4-dimethylamino)phenyl)-(2-methoxycarbonyl-4-dimethylaminophenyl)methane.

solubility [1] | light resistance [2] | SMILES | color formed on silica gel TLC [2]
2.5% | – | CN(C)c1ccc2c(c1)Sc1cc(N(C)C)ccc1N2C(=O)c1ccccc1 [benzoylleucomethylene blue, reference compound] | –
– | excellent | CCOC(=O)c1cc(N(C)C)ccc1C(c1ccc(N(C)C)cc1C)c1ccc(N(C)C)cc1C [Preparation Example 5, bis((2-methyl-4-dimethylamino)phenyl)-(2-ethoxycarbonyl-4-dimethylaminophenyl)methane] | gradually formed a clear blue color

Further lines, the compound ahead of its results:

SMILES | solubility [1] | light resistance [2] | color formed on silica gel TLC [2]
COC(=O)c1cc(N(C)C)ccc1C(c1ccc(N(C)C)cc1)c1ccc(N(C)C)cc1 [Preparation Example 1, bis((4-dimethylamino)phenyl)-(2-methoxycarbonyl-4-dimethylaminophenyl)methane] | at least 10% | excellent | gradually formed a clear blue color
CC(C)OC(=O)c1cc(N(C)C)ccc1C(c1ccc(N(C)C)cc1)c1ccc(N(C)C)cc1 [Preparation Example 2, bis((4-dimethylamino)phenyl)-(2-isopropoxycarbonyl-4-dimethylaminophenyl)methane] | at least 10% | excellent | gradually formed a clear blue color
CCCCOC(=O)c1cc(N(C)C)ccc1C(c1ccc(N(C)C)cc1)c1ccc(N(C)C)cc1 [Preparation Example 3, bis((4-dimethylamino)phenyl)-(2-n-butoxycarbonyl-4-dimethylaminophenyl)methane] | at least 10% | excellent | gradually formed a clear blue color
COC(=O)c1cc(N(C)C)ccc1C(c1ccc(N(C)C)cc1C)c1ccc(N(C)C)cc1C [Preparation Example 4, bis((2-methyl-4-dimethylamino)phenyl)-(2-methoxycarbonyl-4-dimethylaminophenyl)methane] | – | excellent | gradually formed a clear blue color
